In patent US20240368163A1, “COMPOUNDS AND METHODS FOR MODULATING SPLICING” (REMIX THERAPEUTICS INC., priority 2021, published 2024):

What was measured:
Type in all cases: cell-based, human
Target C = experiment: Splicing RT-qPCR panel, Target C canonical junction (CJ) mRNA; conditions: Homo sapiens, gene panel, CJ qPCR, protocol of Example 142; read-out: Target C IC50 (decrease in CJ mRNA levels)
Outline: (§1)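 Splice switching is measured in A673 or K562 cells after 24 h compound exposure (maximum 10 uM, 3-fold steps). Canonical and alternative junction mRNA levels are quantified by RT-qPCR relative to housekeeper and DMSO.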

HTT [1] = experiment: HiBiT protein abundance assay, HTT; conditions: Homo sapiens, K562, 24 h, Table 13B, modified K562 cells
Outline: (§2)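 HiBiT knock-in K562, 10000 cells/well, 24 h cpd at 37 °C/5% CO2; 10-pt 3-fold series from 10 μM final; DMSO ≤0.25%. Lytic detection, luminescence read. 4PL fit → IC50 vs DMSO control; unmodified K562 = baseline.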

MYB = experiment: HiBiT protein abundance assay, MYB; conditions: Homo sapiens, K562, 24 h, Table 13B, modified K562 cells
Outline: as §2

HTT [2] = experiment: Splicing RT-qPCR assay, HTT mRNA canonical junction (CJ) and alternative junction (AJ); conditions: Homo sapiens, gene panel, CJ qPCR, protocol of Example 142; read-out: HTT IC50 (decrease in CJ mRNA levels)
Outline: as §1

SMN2 = experiment: Splicing RT-qPCR panel, SMN2 canonical junction (CJ) mRNA; conditions: Homo sapiens, gene panel, CJ qPCR, protocol of Example 142; read-out: SMN2 IC50 (decrease in CJ mRNA levels)
Outline: as §1

SMILES	IC50 (Target C) [nM]	IC50 (HTT [1]) [nM]	IC50 (MYB) [nM]	IC50 (HTT [2]) [nM]	IC50 (SMN2) [nM]
COc1nc(-c2ccc(N(C)[C@@H]3C[C@H]4CC[C@@H](C3)N4)nn2)cc(F)c1-c1cn[nH]c1 [Compound 931]	< 100	< 100	< 100	< 100	< 100
CN(c1ccc(-c2ccc(-c3cn[nH]c3)c(OC3CC3)n2)nn1)[C@@H]1C[C@H]2CC[C@@H](C1)N2 [Compound 939]	100 to 1000	< 100	< 100	< 100	< 100
COc1cc(-c2ccc(-c3ccc(N(C)[C@@H]4C[C@H]5CC[C@@H](C4)N5)nn3)nc2OC)ncn1 [Compound 954]	1000 to 10000	100 to 1000	1000 to 10000	1000 to 10000	100 to 1000
CN(c1ccc(-c2ccc(-c3cn[nH]c3)c(OC(F)F)n2)nn1)[C@@H]1C[C@H]2CC[C@@H](C1)N2 [Compound 955]	100 to 1000	< 100	< 100	< 100	< 100
COc1nc(-c2ccc(N3CCC(NC(C)(C)C)C3)nn2)ccc1-c1cn[nH]c1 (stereo not shown) [Compound 956]	100 to 1000	< 100	100 to 1000	< 100	< 100
COc1nc(-c2ccc(N(C)[C@@H]3C[C@H]4CC[C@@H](C3)N4)nn2)ccc1-c1ccnc(O)c1 [Compound 961]	100 to 1000	100 to 1000	1000 to 10000	100 to 1000	100 to 1000
COc1nc(-c2ccc(O[C@@H]3C[C@H]4CC[C@@H](C3)N4)nn2)ccc1-c1cnc(C)s1 [Compound 962]	1000 to 10000	100 to 1000	100 to 1000	100 to 1000	100 to 1000
COc1nc(-c2ccc(OC3CC(C)(C)NC(C)(C)C3)nn2)cc(F)c1-c1cn[nH]c1 [Compound 965]	100 to 1000	< 100	100 to 1000	< 100	< 100
CCOc1nc(-c2ccc(OC3CC(C)(C)NC(C)(C)C3)nn2)cc(F)c1-c1cn[nH]c1 [Compound 966]	< 100	< 100	< 100	< 100	< 100
CCOc1nc(-c2ccc(OC3CC(C)(C)NC(C)(C)C3)nn2)ccc1-c1cn[nH]c1 [Compound 967]	100 to 1000	< 100	100 to 1000	< 100	< 100
COc1nc(-c2ccc(OC3CC4CC(F)(F)C(C3)N4)nn2)cc(F)c1-c1cn[nH]c1 (stereo not shown) [Compound 969]	> 10000	100 to 1000	100 to 1000	1000 to 10000	1000 to 10000
